# Key:
# [1] = target: Casein kinase 1, delta tv1 (Sus scrofa, UniProt M3VH47); assay: Inhibition of Sus scrofa (pig) casein kinase 1delta/epsilon isolated from brain using RRKHAAIGpSAYSITA and [gamma33P]ATP as substrate after 30 min by scintillation counting
# [2] = target: Cyclin-dependent kinase 5/CDK5 activator 1 (Homo sapiens, UniProt Q00535); assay: Inhibition of human recombinant CDK5/p25 using histone H1 and [gamma33P]ATP as substrate after 30 min by scintillation counting; assay type: protein-complex assay
# [3] = target: Glycogen synthase kinase-3 (Sus scrofa, UniProt B2LUN4+I6LNT8); assay: Inhibition of Sus scrofa (pig) glycogen synthase kinase 3alpha/beta isolated from brain using YRRAAVPPSPSLSRHSSPHQpSEDEEE and [gamma33P]ATP as substrate after 30 min by liquid scintillation counting
# [4] = target: Cyclin-dependent kinase 2/cyclin A (Homo sapiens, UniProt P24941); assay: Inhibition of human recombinant CDK2/cyclin A using histone H1 and [gamma33P]ATP as substrate after 30 min by scintillation counting; assay type: protein-complex assay
# [5] = target: T1, G2/mitotic-specific cyclin-B (Asterina pectinifera, UniProt P18063); assay: Inhibition of Asteroidea (starfish) Cyclin-dependent kinase 1/cyclin B isolated from oocyte using histone H1 and [gamma33P]ATP as substrate after 30 min by scintillation counting
# T1 sequence (P18063 whole entry): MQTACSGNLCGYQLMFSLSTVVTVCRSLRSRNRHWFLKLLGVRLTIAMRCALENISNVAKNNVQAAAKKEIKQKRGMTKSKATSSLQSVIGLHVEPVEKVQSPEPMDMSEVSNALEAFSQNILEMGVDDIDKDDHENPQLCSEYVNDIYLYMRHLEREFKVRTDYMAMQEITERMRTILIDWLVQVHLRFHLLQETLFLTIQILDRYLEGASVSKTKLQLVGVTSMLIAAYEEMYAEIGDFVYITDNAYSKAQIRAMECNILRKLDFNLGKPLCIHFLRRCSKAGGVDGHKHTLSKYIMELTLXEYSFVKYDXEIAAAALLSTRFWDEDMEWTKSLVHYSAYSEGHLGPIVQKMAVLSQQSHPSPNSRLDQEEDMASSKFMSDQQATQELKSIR
# [6] = target: Dual specificity tyrosine-phosphorylation-regulated kinase 1A (Homo sapiens, UniProt Q13627); assay: Inhibition of Homo sapiens (human) recombinant GST-tagged DYRK1A expressed in Escherichia coli using KKISGRLSPIMTEQ and [gamma33P]ATP as substrate after 30 min by scintillation counting
# [7] = target: Cyclin-dependent kinase 5 (Homo sapiens, UniProt Q00535); assay: Inhibition of CDK5 (unknown origin)
# Sequence of Cyclin-dependent kinase 5 (Q00535 whole entry): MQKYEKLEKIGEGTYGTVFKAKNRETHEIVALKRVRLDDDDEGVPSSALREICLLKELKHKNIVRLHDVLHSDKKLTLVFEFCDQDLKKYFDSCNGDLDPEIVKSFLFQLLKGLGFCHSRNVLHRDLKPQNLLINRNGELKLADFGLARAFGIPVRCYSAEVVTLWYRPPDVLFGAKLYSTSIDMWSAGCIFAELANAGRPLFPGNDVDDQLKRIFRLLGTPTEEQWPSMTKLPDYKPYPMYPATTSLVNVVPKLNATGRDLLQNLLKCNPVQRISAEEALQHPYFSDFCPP
# Sequence of Cyclin-dependent kinase 5/CDK5 activator 1 (Q00535 whole entry): as above
# Sequence of Cyclin-dependent kinase 5/CDK5 activator 1 (Q15078 whole entry, further chain): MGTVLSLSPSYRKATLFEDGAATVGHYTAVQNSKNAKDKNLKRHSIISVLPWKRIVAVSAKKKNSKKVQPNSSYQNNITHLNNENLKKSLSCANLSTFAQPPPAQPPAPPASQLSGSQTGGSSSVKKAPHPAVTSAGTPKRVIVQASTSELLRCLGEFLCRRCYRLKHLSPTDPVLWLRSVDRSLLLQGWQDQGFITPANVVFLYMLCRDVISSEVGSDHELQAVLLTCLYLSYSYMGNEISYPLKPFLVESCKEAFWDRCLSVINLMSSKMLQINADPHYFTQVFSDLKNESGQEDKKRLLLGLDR
# Sequence of Casein kinase 1, delta tv1 (M3VH47 whole entry): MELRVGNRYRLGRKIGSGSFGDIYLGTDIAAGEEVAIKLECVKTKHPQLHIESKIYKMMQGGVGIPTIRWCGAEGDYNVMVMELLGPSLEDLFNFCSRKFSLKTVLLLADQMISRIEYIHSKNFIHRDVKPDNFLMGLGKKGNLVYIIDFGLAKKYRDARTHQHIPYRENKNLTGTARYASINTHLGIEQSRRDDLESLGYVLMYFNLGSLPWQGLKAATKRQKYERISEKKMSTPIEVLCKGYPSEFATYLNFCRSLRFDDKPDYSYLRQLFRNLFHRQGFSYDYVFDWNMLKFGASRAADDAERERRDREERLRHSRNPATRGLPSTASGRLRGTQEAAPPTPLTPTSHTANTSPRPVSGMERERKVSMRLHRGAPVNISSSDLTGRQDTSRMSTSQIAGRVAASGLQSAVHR
Structure (SMILES),IC50 [1],IC50 [2],IC50 [4],IC50 [7],IC50 [3],IC50 [5],IC50 [6]
CC(C)n1cnc2c(Nc3cccc(-c4ncccn4)c3)nc(NC(CO)CO)nc21,0.07 µM,0.62 µM,,,,,
CC(C)n1cnc2c(Nc3cccc(-c4cncnc4)c3)nc(Cl)nc21,0.38 µM,1 µM,,,> 10 µM,,
CC(C)n1cnc2c(Nc3ccc(-c4cncnc4)cc3)nc(Cl)nc21,0.41 µM,2.1 µM,1.1 µM,,> 10 µM,,
CC(C)n1cnc2c(Nc3cccc(-c4ncccn4)c3)nc(Cl)nc21,0.06 µM,1.9 µM,1.9 µM,,> 10 µM,10 µM,> 10 µM
NC1=NC(=O)/C(=C2\CCNC(=O)c3[nH]c(Br)cc32)N1 [HYMENIALDISINE],,,,0.03 µM,,,

# More lines, main results first:
IC50 [1],IC50 [2],IC50 [4],IC50 [7],Structure (SMILES),IC50 [3],IC50 [5],IC50 [6]
0.05 µM,0.11 µM,,,CC(C)n1cnc2c(Nc3cccc(-c4ncccn4)c3)nc(NC(C)(C)CO)nc21,,,
0.32 µM,0.11 µM,0.11 µM,,CC(C)n1cnc2c(Nc3cccc(-c4cncnc4)c3)nc(NC(C)(C)CO)nc21,,,
0.64 µM,0.19 µM,0.33 µM,,CC(C)n1cnc2c(Nc3ccc(-c4cncnc4)cc3)nc(NC(CO)CO)nc21,,,
0.5 µM,0.11 µM,0.2 µM,,CC(C)n1cnc2c(Nc3ccc(-c4cncnc4)cc3)nc(NC(C)(C)CO)nc21,,,

# Reference: ChEMBL document CHEMBL3045291, “Synthesis and evaluation of new potent inhibitors of CK1 and CDK5, two kinases involved in Alzheimers disease” (Med Chem Res, 2013)
